# Measurements: ChEMBL document CHEMBL3603790, “2- and 3-Fluoro-3-deazaneplanocins, 2-fluoro-3-deazaaristeromycins, and 3-methyl-3-deazaneplanocin: Synthesis and antiviral properties” (Bioorg Med Chem, 2015)
# Active and inactive are the calls of the source. The calls are words filed in the database; no cut-off is given here.
# Columns and labels:
# [1] = Selectivity index, ratio of CC50 for African green monkey Vero cells to IC50 for Yellow fever virus; format: functional
# HeLa = test: Cytotoxicity against human HeLa cells; format: cell-based
# Dengue virus = test: Antiviral activity against Dengue virus infected in African green monkey Vero cells after 3 days by neutral red dye-based plaque reduction assay; format: functional, organism-based
# Human alphaherpesvirus 1 = test: Antiviral activity against Human herpesvirus 1 infected in HEL cells after 3 days by neutral red dye-based plaque reduction assay; format: functional, organism-based
# [2] = Cytotoxicity against African green monkey Vero cells; format: cell-based; conditions: chlorocebus sabaeus, Vero cells
# Influenza A virus = test: Antiviral activity against Influenza A virus H1N1 infected in MDCK cells after 3 days by neutral red dye-based plaque reduction assay; format: functional, organism-based
# [3] = Cytotoxicity against African green monkey Vero 76 cells; format: cell-based; conditions: chlorocebus sabaeus, vero 76
# [4] = tested on: Respiratory syncytial virus; test: Antiviral activity against Respiratory syncytial virus infected in human HeLa cells after 3 days by neutral red dye-based plaque reduction assay; format: functional, organism-based
# HEL = test: Cytotoxicity against HEL cells; format: cell-based; conditions: human
# [5] = Cytotoxicity against African green monkey CV1 cells; format: cell-based, CV-1; conditions: chlorocebus aethiops
# [6] = Selectivity index, ratio of CC50 for HFF to IC50 for HCMV; format: functional
# Hepatitis C virus = test: Antiviral activity against Hepatitis C virus infected in human Ava5 cells after 3 days by neutral red dye-based plaque reduction assay; format: functional, organism-based; conditions: Hepacivirus hominis
# Measles morbillivirus = test: Antiviral activity against Measles virus infected in African green monkey CV1 cells after 3 days by neutral red dye-based plaque reduction assay; format: functional, organism-based; conditions: CV-1, 72 h
# Hepatitis B virus = test: Antiviral activity against HBV infected in human HepG22.2.15 cells after 3 days by neutral red dye-based plaque reduction assay; format: functional, organism-based; conditions: HepG2 2.2.15, 72 h
# [7] = tested on: Venezuelan equine encephalitis virus; test: Antiviral activity against Venezuelan equine encephalitis virus infected in African green monkey Vero cells after 3 days by neutral red dye-based plaque reduction assay; format: functional, organism-based
# [8] = Cytotoxicity against monkey MA104 cells; format: cell-based, Macaca mulatta; conditions: rhesus monkey
# Vaccinia virus = test: Antiviral activity against Vaccinia virus infected in HEL cells after 3 days by neutral red dye-based plaque reduction assay; format: functional, organism-based; conditions: Orthopoxvirus vaccinia
# Human betaherpesvirus 5 = test: Antiviral activity against HCMV infected in HFF after 3 days by neutral red dye-based plaque reduction assay; format: functional, organism-based; conditions: Human betaherpesvirus 5, 72 h
# [9] = Selectivity index, ratio of CC50 for human HepG2(2.2.1) cells to IC50 for HBV; format: functional
# Human alphaherpesvirus 2 = test: Antiviral activity against Human herpesvirus 2 infected in HEL cells after 3 days by neutral red dye-based plaque reduction assay; format: functional, organism-based
# MDCK = test: Cytotoxicity against MDCK cells; format: cell-based, Canis lupus familiaris; conditions: dog, mdck
# [10] = tested on: Respiratory syncytial virus; test: Antiviral activity against Respiratory syncytial virus infected in monkey MA104 cells after 3 days by neutral red dye-based plaque reduction assay; format: functional, organism-based
# SARS-CoV = test: Antiviral activity against SARS coronavirus infected in African green monkey Vero E6 cells after 3 days by neutral red dye-based plaque reduction assay; format: functional, organism-based; conditions: Severe acute respiratory syndrome-related coronavirus
# Yellow fever virus = test: Antiviral activity against Yellow fever virus infected in African green monkey Vero cells after 3 days by neutral red dye-based plaque reduction assay; format: functional, organism-based; conditions: 72 h
# [11] = Selectivity index, ratio of CC50 for African green monkey CV1 cells to IC50 for Measles virus; format: functional, CV-1
# Enterovirus C = test: Antiviral activity against Poliovirus infected in monkey LLC-MK2 cells after 3 days by neutral red dye-based plaque reduction assay; format: functional, organism-based
# [12] = Cytotoxicity against African green monkey Vero E6 cells; format: cell-based; conditions: chlorocebus sabaeus
# [13] = Inhibition of rabbit erythrocytic AdoHcy hydrolase using AdoHcy as substrate assessed as formation of L-homocysteine preincubated for 5 mins followed by substrate addition measured after 1 hr by thiol quantitation reagent-based assay; design: species or system Oryctolagus cuniculus
# [14] = Cytotoxicity against HFF; format: cell-based; conditions: human, HFF cells
# West Nile virus = test: Antiviral activity against WNV infected in African green monkey Vero 76 cells after 3 days by neutral red dye-based plaque reduction assay; format: functional, organism-based
# [15] = Cytotoxicity against human […] cells; format: cell-based
# Rift Valley fever virus = test: Antiviral activity against Rift Valley fever virus infected in African green monkey Vero 76 cells after 3 days by neutral red dye-based plaque reduction assay; format: functional, organism-based
# [16] = Cytotoxicity against human Ava5 cells; format: cell-based
# LLC-MK2 = test: Cytotoxicity against monkey LLC-MK2 cells; format: cell-based, Macaca mulatta; conditions: rhesus monkey
Compound,Ratio CC50/IC50 [1],Activity (HeLa),Activity (Dengue virus),Activity (Human alphaherpesvirus 1),CC50 [2] [µM],Activity (Influenza A virus),Activity [3],Activity [4],Activity (HEL),CC50 [5] [µM],Ratio CC50/IC50 [6],Activity (Hepatitis C virus),IC50 (Measles morbillivirus) [µM],IC50 (Hepatitis B virus) [µM],Activity [7],Activity [8],Activity (Vaccinia virus),IC50 (Human betaherpesvirus 5) [µM],Ratio CC50/IC50 [9],Activity (Human alphaherpesvirus 2),also measured
Nc1nc(F)cc2c1ncn2[C@@H]1C=C(CCO)[C@@H](O)[C@H]1O,>3.4,Non-toxic,inactive,inactive,> 100,inactive,Non-toxic,inactive,Non-toxic,> 100,> 300,inactive,89.8,0.99,inactive,Non-toxic,inactive,< 0.1,8,inactive,Activity (MDCK): Non-toxic; Activity [10]: inactive; Activity (SARS-CoV): inactive; IC50 (Yellow fever virus): 29 µM; Ratio CC50/IC50 [11]: >1; Activity (Enterovirus C): inactive; Activity [12]: Non-toxic; IC50 [13]: > 10 µM; CC50 [14]: > 300 µM; Activity (West Nile virus): inactive; CC50 [15]: 7.5 µM; Activity (Rift Valley fever virus): inactive; Activity [16]: Non-toxic; Activity (LLC-MK2): Non-toxic
Nc1nc(F)cc2c1ncn2[C@@H]1C=C(CO)[C@@H](O)[C@H]1O,>50,Non-toxic,inactive,inactive,> 100,inactive,Non-toxic,inactive,Non-toxic,> 100,25,inactive,8.5,0.67,inactive,Non-toxic,inactive,8.7,17,inactive,Activity (MDCK): Non-toxic; Activity [10]: inactive; Activity (SARS-CoV): inactive; IC50 (Yellow fever virus): 6.8 µM; Ratio CC50/IC50 [11]: >12; Activity (Enterovirus C): inactive; Activity [12]: Non-toxic; IC50 [13]: 1.4 µM; CC50 [14]: 218 µM; Activity (West Nile virus): inactive; CC50 [15]: 11 µM; Activity (Rift Valley fever virus): inactive; Activity [16]: Non-toxic; Activity (LLC-MK2): Non-toxic
